Several values for one entry are separate records, joined by “and”; a condition that tells them apart may be missing. Equal entries are not always repeated.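 48-hour exposure; five concentrations; linearly interpolated endpoints. Abbreviation: GI50, concentration required for 50% inhibition of growth. Definition used: TGI = concentration required for complete inhibition of growth.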
What was measured:
Assay in all cases: inhibition of tumour cell growth, NCI panel, 48 h
A549 NSCLC = tested on: A549 NSCLC
CAKI-1 renal = tested on: CAKI-1 renal
HCT-116 colon = tested on: HCT-116 colon
HOP-92 NSCLC = tested on: HOP-92 NSCLC
K-562 leukemia = tested on: K-562 leukemia
MDA-MB-435 = tested on: MDA-MB-435
SF-539 CNS = tested on: SF-539 CNS
SK-OV-3 ovarian = tested on: SK-OV-3 ovarian
T-47D breast = tested on: T-47D breast
UACC-62 melanoma = tested on: UACC-62 melanoma

SMILES | GI50 (A549 NSCLC) | TGI (A549 NSCLC) | GI50 (CAKI-1 renal) | TGI (CAKI-1 renal) | GI50 (HCT-116 colon) | TGI (HCT-116 colon) | GI50 (HOP-92 NSCLC) | TGI (HOP-92 NSCLC) | GI50 (K-562 leukemia) | TGI (K-562 leukemia) | GI50 (MDA-MB-435) | TGI (MDA-MB-435) | GI50 (SF-539 CNS) | TGI (SF-539 CNS) | GI50 (SK-OV-3 ovarian) | TGI (SK-OV-3 ovarian) | GI50 (T-47D breast) | TGI (T-47D breast) | GI50 (UACC-62 melanoma) | TGI (UACC-62 melanoma)
Nc1nc2cc(CC[C@H]3C[C@@H](n4ccc5c(N)ncnc54)[C@H](O)[C@@H]3O)ccc2cc1Br | 12.4 µM | 34.3 µM | 4.38 µM | 21.9 µM | 2.45 µM | 19.9 µM | 6.66 µM | 39.9 µM | 1.38 µM | > 100 µM | 4.34 µM | 18.4 µM | 13.2 µM | 27.6 µM | 13.4 µM | 39.2 µM | 0.785 µM | 27.2 µM | 8.95 µM | 21.7 µM
COC(=O)c1c2c(c(C)[n+]([O-])c1C)C(=O)C=C(NCc1cccc(Cl)c1)C2=O | 0.462 µM | 2.22 µM | 0.204 µM | 1.95 µM | 0.284 µM | 0.976 µM | 1.81 µM | 4.1 µM | 0.085 µM | > 30.2 µM | 0.116 µM | 0.251 µM | 0.525 µM | 1.49 µM | 1.92 µM | 5.14 µM | 0.187 µM | 1.71 µM | 0.0741 µM | 0.459 µM
COc1cc(C(=O)O[C@H](C(=O)NCCN(C)CCNC(=O)[C@@H](OC(=O)c2cc(OC)cc3c(C)cccc23)[C@]2(C)CO2)[C@]2(C)CO2)c2cccc(C)c2c1 |  |  | < 0.01 µM | 0.0477 µM | 0.0751 µM | 2.93 µM | 0.0192 µM | 0.173 µM | < 0.0389 µM | 6.85 µM | < 0.01 µM | 0.0398 µM | < 0.01 µM | 0.0504 µM | 0.575 µM | 3.6 µM | 0.0924 µM | 1.7 µM | 0.154 µM | 0.338 µM
CC(C)=CC(=O)N[C@H]1CC[C@]2(C)C3CC[C@]4(C)C(C(C)N(C)C)=CCC4C3CCC2[C@H]1O (stereo partly specified) | 5.92 µM | 22.9 µM | 5.63 µM | 14.7 µM | 1.77 µM | 4.21 µM | 7.72 µM | 22 µM | 1.58 µM | 4.52 µM | 2 µM | 4.53 µM | 1.59 µM | 3.38 µM | 12.1 µM | 24.6 µM | 2.58 µM | 9.59 µM | 1.95 µM | 3.77 µM
O=c1oc2cc(OC/C(=N/O)c3ccc(F)cc3)ccc2c2ccccc12 | 18.2 µM | 45.7 µM | 13.1 µM | 33.4 µM | 15.8 µM | 29.2 µM | 23.6 µM | 52.8 µM | 20.1 µM | 46.3 µM | 17.3 µM | 38.7 µM | 20.1 µM | 36.4 µM | 24 µM | 41.3 µM | 35.4 µM | > 100 µM | 17.6 µM | 33 µM
NC(N)=NC(N)=NCCCc1ccco1 | > 500 µM | > 500 µM | 92.4 µM | 247 µM | 90.2 µM | 335 µM | 57.5 µM | 158 µM | 24.5 µM | 238 µM | 21.5 µM | 82.4 µM | 108 µM | 268 µM | 142 µM | > 500 µM | 71.7 µM | 319 µM | 37.8 µM | 111 µM
CCC1(OC(=O)CN)C(=O)OCc2c1cc1n(c2=O)Cc2cc3ccccc3nc2-1 (stereo unspecified) | 0.0472 µM | 2.28 µM | 0.00739 µM |  | 0.0519 µM and 0.0222 µM | 0.265 µM and 0.431 µM | 0.0971 µM |  | 0.17 µM | > 100 µM | 0.13 µM | 0.348 µM and 0.504 µM | 0.0378 µM | 0.191 µM and 0.0253 µM | 0.0224 µM | > 54.3 µM | 0.0426 µM | 0.916 µM | 0.00787 µM | 0.0895 µM and 0.0596 µM
CC(=O)O[C@H]1C(=O)[C@@]2(C)[C@H]([C@H](OC(=O)c3ccccc3)[C@]3(O)C[C@H](OC(=O)[C@H](OC(=O)OC[C@H]4COC(C)(C)O4)[C@@H](NC(=O)c4ccccc4)c4ccccc4)C(C)=C1C3(C)C)[C@]1(OC(C)=O)CO[C@@H]1C[C@@H]2O | 0.0295 µM | > 33.3 µM | 0.0885 µM | > 33.3 µM | 0.00596 µM | > 33.3 µM | 0.0519 µM | > 33.3 µM | 0.0122 µM | > 33.3 µM | 0.00333 µM | 0.00852 µM | 0.0579 µM | 16.7 µM | 0.232 µM | > 33.3 µM | 0.0437 µM | > 33.3 µM | 0.046 µM | > 33.3 µM
O=C(CI)Nc1ccc(O)c2ccccc12 | 3.56 µM | 13.7 µM | 0.69 µM | 1.84 µM | 0.481 µM | 1.16 µM | 1.61 µM | 3.39 µM | 0.328 µM | > 100 µM | 1.9 µM | 4.34 µM | 1.8 µM | 4.47 µM | 4.27 µM | 14.8 µM | 1.7 µM | 4.27 µM | 1.67 µM | 3.44 µM
Cc1ccc(NC(=O)/C(Cc2cc(=O)oc3cc(O)ccc23)=N\NC(C)(C)C)cc1C |  | > 100 µM |  | > 100 µM |  | > 100 µM |  | > 100 µM |  | > 100 µM |  | > 100 µM |  | > 100 µM |  | > 100 µM |  | > 100 µM |  | > 100 µM
CO[C@H]1C[C@](C)(O)Cc2cc3c(c(O)c21)C(=O)c1c(O)cc2c(c1C3=O)O[C@@H]1O[C@@]2(C)[C@H](O)[C@@H](N(C)C)[C@@H]1O | 0.139 µM | 1.61 µM and 3.02 µM | 0.114 µM | 2.1 µM and 1.59 µM | 1.13 µM | 2.51 µM and 3.03 µM | 1.81 µM | 7.76 µM and 2.96 µM |  | 6.65 µM and 15.7 µM |  | 5.23 µM |  | 2.3 µM and 2.89 µM | 0.749 µM | 2.45 µM and 3.67 µM |  | 17.4 µM |  | 2.98 µM and 2.83 µM
CC(=O)/C=C/C1=C(c2csc3ccccc23)c2ccccc2CC1 | 24 µM | > 100 µM | 32.4 µM | > 100 µM | 6.16 µM | 95 µM | 19.5 µM | 65.3 µM | 18.8 µM | > 100 µM | 21.6 µM | 70.7 µM | 26.4 µM | 71 µM | 22.4 µM | > 100 µM | 22.6 µM | > 100 µM | 12.8 µM | 30.5 µM

Source: PubChem BioAssay (NCI)
